Laboratory results published in patent publication US20220009914A1, “Analogs of Nitrofuran Antibiotics to Combat Resistance” (The Trustees of Indiana University, priority 2020, published 2022).
Where two headings read alike, the source gives them in different places.

Tests used:
[1] = target: T1, E. coli GroEL/ES (Escherichia coli, UniProt P0A6F5); experiment: GroEL/ES-mediated dRho refolding assay; assay type: biochemical
T1 construct: made in house; host or cells: GroEL in NEB 5-alpha E. coli; GroES in E. coli BL21 (DE3)
Method: Evaluating compounds for inhibition in the GroEL/ES-mediated dRho refolding assay. Reagent preparation: For this assay, five primary reagent stocks were prepared: 1) GroEL/ES-dRho binary complex stock; 2) ATP initiation stock; 3) thiocyanate enzymatic assay stock; 4) formaldehyde quench stock; 5) ferric nitrate reporter stock. Denatured rhodanese (dRho) was prepared by 3-fold dilution of rhodanese (Roche product #R^1756, diluted to 10 mg/mL with H2O) with denaturant buffer (12 M Urea, 50 mM Tris-HCl, pH 7.4, and 10 mM DTT). Rhodanese was completely denatured by incubating at room temperature for >45 min. The binary complex solution was prepared by slowly adding the dRho stock to a stirring stock of concentrated GroEL in modified folding buffer (50 mM Tris-HCl, pH 7.4, 50 mM KCl, 10 mM MgCl2, 5 mM Na2S2O3, and 1 mM DTT). The solution was centrifuged at 16,000×g for 5 minutes, and the supernatant was collected and added to a solution of GroES in modified folding buffer to give final protein concentrations of 100 nM GroEL, 120 nM GroES, and 80 nM dRho. The binary complex stock was prepared immediately prior to use. For the ATP initiation stock, ATP solid was diluted into modified folding buffer to a final concentration of 2.0 mM. The thiocyanate enzymatic assay stock was prepared to contain 70 mM KH2PO4, 80 mM KCN, and 80 mM Na2S2O3 in water. The formaldehyde quench solution contained 30% formaldehyde in water.
Assay Protocol: First, 10 μL aliquots of the GroEL/ES-dRho complex stock were dispensed into clear, flat-bottom 384-well polystyrene plates. […] After incubating for 40 minutes at 37° C. for the refolding cycle, 30 μL of the thiocyanate enzymatic assay stock was added and incubated for 60 min at room temperature for the refolded rhodanese enzymatic reporter reaction. The reporter reaction was quenched by adding 10 μL of the formaldehyde quench stock, and then 40 μL of the ferric nitrate reporter stock was added to quantify the amount of thiocyanate produced during the enzymatic reporter reaction, which is proportional to the amount of dRho refolded by GroEL/ES. After incubating at room temperature for 15 min, the absorbance by Fe(SCN)3 was measured at 460 nm using a Molecular Devices SpectraMax Plus384 microplate reader. A second set of baseline control plates were prepared analogously, but without GroEL/ES-dRho protein binary solution, to correct for possible interference from compound absorbance or turbidity. […] Results presented represent the averages of IC50 values obtained from at least four replicates.
Evaluating compounds for inhibition in the GroEL/ES-mediated dRho refolding assay. All compounds were evaluated for inhibiting E. coli GroEL/ES-mediated refolding of the denatured Rho reporter enzyme as per our previously reported procedure. Results presented represent the averages of IC50 values obtained from at least four replicates.

[2] = system: Enterococcus faecium strain NCTC 7171 (ATCC #19434); experiment: bacterial proliferation assay, E. faecium; assay type: cell-based; details: read-out: Bacterial Proliferation EC50 E. faecium
Method: (§1) All compounds were evaluated for inhibiting the proliferation of E. coli and each of the ESKAPE bacteria. Results presented represent the averages of EC50 values obtained from at least four replicates. Evaluating compounds for inhibition of bacterial cell proliferation.
(§2) Growth Media: E. coli were grown with LB medium and all ESKAPE bacteria were grown in Brain Heart Infusion (BHI) medium (Becton, Dickinson and Company), with all liquid cultures supplemented with 25 mg/L Ca^2+ and 12.5 mg/L Mg^2+ to mimic physiological free concentrations of these cations. A 10 mg/mL Ca^2+ stock solution was prepared by dissolving 1.84 g of CaCl2.2H2O in 50 mL of deionized water, and a 10 mg/mL Mg^2+ stock solution was prepared by dissolving 4.18 g of MgCl2.6H2O in 50 mL deionized water—filter sterilized using 0.2 μm cellulose-acetate filters. 2.5 mL of the sterile 10 mg/mL Ca^2+ stock and 1.25 mL of the sterile 10 mg/mL Mg^2+ stock solutions were added per 1 L of autoclaved LB or BHI media to obtain 25 mg/L Ca^2+ and 12.5 mg/L Mg^2+ ions, respectively.
(§3) General Assay Protocol: Stock bacterial cultures were streaked onto LB or BHI agar plates and grown overnight at 37° C. Fresh aliquots of cation supplemented media were inoculated with single bacterial colonies and the cultures were grown overnight at 37° C. with shaking (240 rpm). The following morning, cultures were diluted 10-fold into fresh media and grown at 37° C. until bacteria had reached mid-log phase growth (OD600˜0.4-0.6). The cultures were then diluted into fresh media to achieve final OD600 readings of 0.017. Aliquots of these diluted cultures (30 μL) were added to clear, flat-bottom 384-well polystyrene plates that were previously stamped with 0.5 μL of test compounds in 20 μL of media (yielding initial OD600=0.01 bacterial cultures). All compounds were tested in dose-response with concentration ranges during the proliferation assays from 100 μM to 46 nM (3-fold dilution series). A second set of baseline control plates were prepared analogously, but without any bacteria added, to correct for possible compound absorbance and/or precipitation. […] Plates were then read at 600 nm using a Molecular Devices SpectraMax Plus384 microplate reader. […] Results presented represent the averages of EC50 values obtained from at least four replicates.
(§4) Evaluating analogs for inhibiting the growth of E. coli and the ESKAPE bacteria. Analogs were initially tested for antibacterial efficacy against representative strains of antibiotic-sensitive E. coli and the ESKAPE bacteria. To determine compound efficacy, bacterial proliferation assays were carried out in liquid media culture supplemented with physiological concentrations of free calcium and magnesium cations. For these assays, bacterial cultures (OD600=0.01) were exposed to test compounds in 8-point, 3-fold dilution series (100 μM to 46 nM concentration range), in 384-well plates. After addition of compounds to cultures, the plates were sealed with Breathe-Easy gas permeable membranes and allowed to grow to mid-log phase (OD600˜0.4-0.6), whereupon final OD600 readings were taken to assess for bacterial growth and inhibition.

[3] = system: Staphylococcus aureus strain Seattle 1945 (ATCC #25923); experiment: bacterial proliferation assay, S. aureus; assay type: cell-based; details: Staphylococcus aureus, ATCC25923; read-out: Bacterial Proliferation EC50 S. aureus
Method: as §1, §2, §3, §4

[4] = system: Enterobacter cloacae strain CDC 442-68 (ATCC #13047); experiment: bacterial proliferation assay, E. cloacae; assay type: cell-based; details: ATCC13047, read-out: Bacterial Proliferation EC50 E. cloacae
Method: as §1, §2, §3, §4

T1 sequence (P0A6F5 2-548): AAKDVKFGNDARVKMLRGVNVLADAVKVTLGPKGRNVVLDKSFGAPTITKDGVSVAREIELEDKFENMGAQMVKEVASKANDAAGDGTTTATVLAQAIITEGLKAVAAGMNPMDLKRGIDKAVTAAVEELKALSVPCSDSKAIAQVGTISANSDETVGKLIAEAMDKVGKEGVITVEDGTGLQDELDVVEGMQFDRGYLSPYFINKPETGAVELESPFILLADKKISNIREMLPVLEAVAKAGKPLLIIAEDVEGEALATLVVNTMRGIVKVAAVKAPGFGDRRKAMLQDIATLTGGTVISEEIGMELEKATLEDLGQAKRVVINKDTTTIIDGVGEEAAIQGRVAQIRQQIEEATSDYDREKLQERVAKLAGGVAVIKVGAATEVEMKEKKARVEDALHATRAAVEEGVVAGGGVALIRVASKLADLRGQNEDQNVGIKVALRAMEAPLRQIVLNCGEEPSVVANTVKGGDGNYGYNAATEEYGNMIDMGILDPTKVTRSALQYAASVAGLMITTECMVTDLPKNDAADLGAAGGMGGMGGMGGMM

| SMILES | IC50 ([1]; read-out: GroEL/ES-dRho Refolding IC50) [µM] | EC50 [2] [µM] | EC50 [3] [µM] | EC50 [4] [µM] | IC50 [1] [µM] |
| --- | --- | --- | --- | --- | --- |
| O=C(N/N=C/c1ccc([N+](=O)[O-])o1)c1ccc(Cl)s1 [Compound 17, 5-chloro-N′-((5-nitrofuran-2-yl)methylene)thiophene-2-carbohydrazide] | 60 | 12 | 3 | 49 | – |
| O=C(N/N=C/c1ccc([N+](=O)[O-])o1)c1ccncc1 [Compound 19, N′-((5-nitrofuran-2-yl)methylene)isonicotinohydrazide] | – | 13 | 9.5 | 73 | 64 |
| COc1ccc(C(=O)N/N=C/c2cccc3ncccc23)cc1 [Compound 31, 4-methoxy-N′-(quinolin-5-ylmethylene)benzohydrazide] | – | > 100 | > 100 | > 100 | > 250 |
